According to patent publication US20250101062A1, “ANTIMICROBIAL PEPTIDES” (Board of Regents of the University of Nebraska, priority 2023, published 2025):
Like-named read-outs stand apart in the source and are kept apart here. Where no end group is shown, it is not given here.

Legend:
P. aeruginosa E411-17 = assay: microbe, parasite or virus in culture; format: cell-based, Pseudomonas aeruginosa; conditions: for MIC: read-out: Antimicrobial activity (MIC)
Outline: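 Broth microdilution with twofold peptide dilutions, using exponential-phase bacteria at about 10^5 CFU/mL in MHB, incubated overnight at 37 °C and read at OD600. MIC, reported as a range, is the peptide concentration with no growth. Some tests used diluted MHB/TSB/LB, adjusted pH, or added NaCl or human serum.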

[1] = system: S. aureus USA300 biofilms in murine wounds; assay: In vivo biofilm assay, murine wound model; parameters: species or system BALB/c mice; conditions: topical, 24 h
Experimental: Preparation of Inoculum. An overnight culture of S. aureus USA300 LAC was inoculated in fresh MHB and incubated at 37° C. for 3 hours. The suspension was centrifuged at 3000 g for 5 minutes, and the supernatant was discarded. The bacteria were resuspended in 1×PBS, and the OD600 was adjusted to 0.6 (˜3×10^7 CFU/mL).
Experimental Animals. An alternative murine wound model has been established which is slightly different from other studies (Su, et al. (2019) Mol. Pharmaceutics 16:2011-2020; Su, et al. (2023) J. Controlled Release 356:131-141). Female BALB/c mice (3-4 weeks, ˜20 g) were fed with standardized food (Teklad Laboratory diet for rodents) and water (Hydropac Alternative Watering System) ad libitum. Mice were kept in ventilated cages (IVCs) at a temperature of 20-24° C., a humidity of 50-60%, 60 air exchanges per hour, and a 12/12 hour light/dark cycle. All materials, including IVCs, lids, feeders, bottles, bedding, and water, were autoclaved before use. All animal manipulations were performed in a class II laminar flow biological safety cabinet. The study was approved by the Institutional Animal Care and Use Committee (IACUC) of UNMC (Protocol no. 22-015-08-FC).
In Vivo Biofilm Assay. Mice were anesthetized by intraperitoneal injection of ketamine-xylazine (100 mg/kg+10 mg/kg). […] Finally, the plates were incubated at 37° C. for 20 hours and the CFUs were counted. […]

A. baumannii B28-16 = format: cell-based, Acinetobacter baumannii; conditions: B28-16
Outline: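 Peptides twofold serially diluted against exponential-phase resistant clinical isolates at ~10^5 CFU/mL in MHB (also diluted MHB, TSB or LB in one protocol), CLSI-based broth microdilution. Incubated overnight at 37° C., OD 600 nm read; MIC taken as lowest concentration without growth, reported as ranges.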

chymotrypsin = target: T1, chymotrypsin (Bos taurus, UniProt P00766); format: in vitro ADME, mammalian
T1 construct: purchased Thermo Fisher Scientific
Experimental: A solution of peptide/protease (40:1 molar ratio) was made in phosphate-buffered saline (PBS; pH 7.1, Gibco, NY) and incubated at 37° C. for 1 hour. As controls, peptides without proteases were also incubated in the same manner. Then, aliquots of 10 μL were transferred to a 96-well polystyrene microplate and mixed with the exponential-phase MRSA USA300 culture as performed in the antibacterial activity assays above.

## CCCCCCCCCC(=O)N[C@@H](Cc1c[nH]c2ccccc12)C(=O)N[C@H](CC(N)=O)C(=O)N[C@@H](CC(=O)O)C(=O)N[C@@H]1C(=O)NCC(=O)N[C@@H](CCCN)C(=O)N[C@@H](CC(=O)O)C(=O)N[C@H](C)C(=O)N[C@@H](CC(=O)O)C(=O)NCC(=O)N[C@H](CO)C(=O)N[C@@H]([C@H](C)CC(=O)O)C(=O)N[C@@H](CC(=O)c2ccccc2N)C(=O)O[C@@H]1C [Daptomycin]
P. aeruginosa E411-17; Human serum 5%
  MIC: >8 µM
P. aeruginosa E411-17; Human serum 10%
  MIC: >8 µM
P. aeruginosa E411-17; Pseudomonas aeruginosa, E41117, pH 6.21
  MIC: > 8 µM
P. aeruginosa E411-17; Pseudomonas aeruginosa, E41117, pH 7.22
  MIC: > 8 µM
P. aeruginosa E411-17; Pseudomonas aeruginosa, E41117, pH 8.13
  MIC: > 8 µM
P. aeruginosa E411-17; Pseudomonas aeruginosa, E41117, NaCl (150 mM)
  MIC: > 8 µM
[1]; 10 mg/kg per wound
  reduction of bacterial burden: ~3 logs

## RRWWRWWR-NH2 [W543]
A. baumannii B28-16
  Activity (MIC) A. baumannii: >32 µM
P. aeruginosa E411-17; E411-17
  Activity (MIC) P. aeruginosa: 8 µM
[1]; 4.4 mg/kg per wound
  bacterial CFU decrease: 2 log
chymotrypsin
  activity after protease incubation: started to lose activity
